In ChEMBL document CHEMBL1201862, “PubChem BioAssay data set” (2004):
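Compound exposure: 48 hours, 5 concentrations, 96-well plates. GI50 = concentration required for 50% inhibition of growth.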 Activity calls are given as the source filed them. No stated cut-off is given here; in the data, active = GI50 up to about 1.1 µM and inactive = higher.

Tests used:
Experiment in all cases: DTP human tumour cell line panel, 48 h
[1] = system: TK-10
[2] = system: NCI-H460
[3] = system: SK-MEL-2
[4] = system: HCT-15
[5] = system: 786-0
[6] = system: M19-MEL
[7] = system: RXF 631
[8] = system: UO-31
[9] = system: SR
[10] = system: OVCAR-4
[11] = system: HT-29
[12] = system: SK-MEL-5
[13] = system: COLO 205
[14] = system: SNB-19
[15] = system: A549
[16] = system: DMS-273
[17] = system: HCT-116
[18] = system: NCI-H23
[19] = system: HCC 2998
[20] = system: CCRF-CEM
[21] = system: HOP-18
[22] = system: SK-OV-3
[23] = system: ACHN
[24] = system: HOP-92
[25] = system: Malme-3M
[26] = system: SF-268
[27] = system: SN12C
[28] = system: SF-295
[29] = system: LXFL 529
[30] = system: EKVX
[31] = system: MOLT-4
[32] = system: SNB-75
[33] = system: RXF 393
[34] = system: SW-620
[35] = system: HOP-62
[36] = system: K562
[37] = system: KM-20L2
[38] = system: SNB-78
[39] = system: KM12
[40] = system: OVCAR-3
[41] = system: OVCAR-5
[42] = system: DLD-1
[43] = system: A498
[44] = system: NCI-H226
[45] = system: UACC-62
[46] = system: CAKI-1
[47] = system: M14
[48] = system: HL-60
[49] = system: IGROV-1
[50] = system: U-251
[51] = system: DMS-114
[52] = system: UACC-257
[53] = system: LOX IMVI
[54] = system: SF-539
[55] = system: SK-MEL-28
[56] = system: RPMI-8226
[57] = system: XF498
[58] = system: OVCAR-8

For `CCc1cccc(C(C)C)c1C1C(=O)C(=O)N(c2nc3ccccc3s2)C(=O)C1=O`, the GI50 [1] was > 100 µM (inactive), the GI50 [2] was > 100 µM (inactive) and the GI50 [3] was > 100 µM (inactive). The GI50 [4] was over 100 µM, the GI50 [5] was > 100 µM (inactive) and the GI50 [6] was > 100 µM (inactive). The GI50 [7] was > 100 µM (inactive), the GI50 [8] was > 100 µM (inactive) and the GI50 [9] was > 100 µM (inactive). The GI50 [10] was > 100 µM (inactive), the GI50 [11] was > 100 µM (inactive) and the GI50 [12] was > 100 µM (inactive). The GI50 [13] was > 100 µM (inactive), the GI50 [14] was 71.9 µM (inactive) and the GI50 [15] was > 100 µM (inactive). The GI50 [16] was > 100 µM (inactive), the GI50 [17] was > 100 µM (inactive) and the GI50 [18] was > 100 µM (inactive). The GI50 [19] was > 100 µM (inactive), the GI50 [20] was > 100 µM (inactive) and the GI50 [21] was > 100 µM (inactive). For the same molecule, the GI50 [22] was > 100 µM (inactive), the GI50 [23] was > 100 µM (inactive) and the GI50 [24] was 38.7 µM (inactive). For the same molecule, the GI50 [25] was > 100 µM (inactive), the GI50 [26] was > 100 µM (inactive) and the GI50 [27] was > 100 µM (inactive). The GI50 [28] was > 100 µM (inactive), the GI50 [29] was > 100 µM (inactive) and the GI50 [30] was > 100 µM (inactive). The GI50 [31] was > 100 µM (inactive), the GI50 [32] was > 100 µM (inactive) and the GI50 [33] was > 100 µM (inactive). For the same molecule, the GI50 [34] was > 100 µM (inactive), the GI50 [35] was > 100 µM (inactive) and the GI50 [36] was > 100 µM (inactive). For the same molecule, the GI50 [37] was > 100 µM (inactive), the GI50 [38] was > 100 µM (inactive) and the GI50 [39] was > 100 µM (inactive). The GI50 [40] was > 100 µM (inactive), the GI50 [41] was > 100 µM (inactive) and the GI50 [42] was > 100 µM (inactive). For the same molecule, the GI50 [43] was > 100 µM (inactive), the GI50 [44] was > 100 µM (inactive) and the GI50 [45] was > 100 µM (inactive). The GI50 [46] was > 100 µM (inactive), the GI50 [47] was > 100 µM (inactive) and the GI50 [48] was > 100 µM (inactive). For the same molecule, the GI50 [49] was > 100 µM (inactive), the GI50 [50] was > 100 µM (inactive) and the GI50 [51] was > 100 µM (inactive). The GI50 [52] was > 100 µM (inactive), the GI50 [53] was > 100 µM (inactive) and the GI50 [54] was > 100 µM (inactive). The GI50 [55] was > 100 µM (inactive) and the GI50 [56] was > 100 µM (inactive).

For `Cc1cc2c(CC(=O)O)n[nH]c2c(C(=O)O)c1C`, the GI50 [1] was > 100 µM (inactive), the GI50 [2] was > 100 µM (inactive) and the GI50 [3] was > 100 µM (inactive). The GI50 [4] was over 100 µM, the GI50 [5] was > 100 µM (inactive) and the GI50 [6] was > 100 µM (inactive). For the same molecule, the GI50 [7] was > 100 µM (inactive), the GI50 [8] was > 100 µM (inactive) and the GI50 [9] was > 100 µM (inactive). For the same molecule, the GI50 [11] was > 100 µM (inactive), the GI50 [13] was > 100 µM (inactive) and the GI50 [14] was > 100 µM (inactive). The GI50 [15] was > 100 µM (inactive), the GI50 [16] was > 100 µM (inactive) and the GI50 [17] was > 100 µM (inactive). The GI50 [18] was > 100 µM (inactive), the GI50 [19] was > 100 µM (inactive) and the GI50 [20] was > 100 µM (inactive). For the same molecule, the GI50 [21] was > 100 µM (inactive), the GI50 [22] was > 100 µM (inactive) and the GI50 [23] was > 100 µM (inactive). The GI50 [24] was > 100 µM (inactive), the GI50 [25] was > 100 µM (inactive) and the GI50 [26] was > 100 µM (inactive). The GI50 [27] was > 100 µM (inactive), the GI50 [28] was > 100 µM (inactive) and the GI50 [57] was > 100 µM (inactive). The GI50 [29] was > 100 µM (inactive), the GI50 [30] was > 100 µM (inactive) and the GI50 [31] was > 100 µM (inactive). The GI50 [32] was > 100 µM (inactive), the GI50 [33] was > 100 µM (inactive) and the GI50 [34] was > 100 µM (inactive). For the same molecule, the GI50 [35] was > 100 µM (inactive), the GI50 [37] was > 100 µM (inactive) and the GI50 [38] was > 100 µM (inactive). The GI50 [40] was > 100 µM (inactive), the GI50 [41] was > 100 µM (inactive) and the GI50 [42] was > 100 µM (inactive). The GI50 [44] was > 100 µM (inactive), the GI50 [45] was > 100 µM (inactive) and the GI50 [48] was > 100 µM (inactive). For the same molecule, the GI50 [50] was > 100 µM (inactive), the GI50 [52] was > 100 µM (inactive) and the GI50 [53] was > 100 µM (inactive). For the same molecule, the GI50 [54] was > 100 µM (inactive), the GI50 [58] was > 100 µM (inactive) and the GI50 [55] was > 100 µM (inactive). The GI50 [56] was > 100 µM (inactive).

`O=C(C#Cc1cnc(O)nc1O)c1ccccc1` was tested, and the GI50 [1] was 13.8 µM (inactive), the GI50 [2] was 14.1 µM (inactive) and the GI50 [3] was 12.1 µM (inactive). For the same molecule, the GI50 [4] was 12.3 µM, the GI50 [5] was 12.2 µM (inactive) and the GI50 [6] was 9.48 µM (inactive). The GI50 [7] was 14 µM (inactive), the GI50 [8] was 17.4 µM (inactive) and the GI50 [10] was 14.1 µM (inactive). The GI50 [11] was 21.8 µM (inactive), the GI50 [12] was 12.7 µM (inactive) and the GI50 [13] was 7.23 µM (inactive). The GI50 [14] was 17.3 µM (inactive), the GI50 [15] was 24.7 µM (inactive) and the GI50 [16] was 14.9 µM (inactive). For the same molecule, the GI50 [17] was 7 µM (inactive), the GI50 [18] was 13.7 µM (inactive) and the GI50 [19] was 18.3 µM (inactive). The GI50 [20] was 1.97 µM (inactive), the GI50 [21] was 15.7 µM (inactive) and the GI50 [22] was 27.3 µM (inactive). For the same molecule, the GI50 [23] was 14.5 µM (inactive), the GI50 [24] was 13.2 µM (inactive) and the GI50 [25] was 3.34 µM (inactive). For the same molecule, the GI50 [26] was 13.6 µM (inactive), the GI50 [27] was 4.37 µM (inactive) and the GI50 [28] was 35.9 µM (inactive). The GI50 [30] was 12 µM (inactive), the GI50 [31] was 2.48 µM (inactive) and the GI50 [32] was 18.2 µM (inactive). The GI50 [33] was 1.7 µM (inactive), the GI50 [34] was 6.76 µM (inactive) and the GI50 [35] was 18.5 µM (inactive). The GI50 [36] was 2.98 µM (inactive), the GI50 [38] was 10.4 µM (inactive) and the GI50 [39] was 15.2 µM (inactive). The GI50 [40] was 2.09 µM (inactive), the GI50 [41] was 18.9 µM (inactive) and the GI50 [42] was 11.3 µM (inactive). The GI50 [43] was 15.5 µM (inactive), the GI50 [44] was 24.8 µM (inactive) and the GI50 [45] was 7.28 µM (inactive). For the same molecule, the GI50 [46] was 18.2 µM (inactive), the GI50 [47] was 5.2 µM (inactive) and the GI50 [48] was 3.3 µM (inactive). The GI50 [49] was 17.9 µM (inactive), the GI50 [50] was 13.9 µM (inactive) and the GI50 [51] was 15.1 µM (inactive). For the same molecule, the GI50 [52] was 11.5 µM (inactive), the GI50 [53] was 4.42 µM (inactive) and the GI50 [54] was 4.04 µM (inactive). The GI50 [58] was 10.5 µM (inactive), the GI50 [55] was 10.9 µM (inactive) and the GI50 [56] was 7.76 µM (inactive).
